This note sets out measurements from ChEMBL document CHEMBL3621186, “Design, synthesis and antitumor activity of non-camptothecin topoisomerase I inhibitors” (Bioorg Med Chem Lett, 2015).

The test system of assay [1] is U-87 MG. As to the kind of experiment: Cytotoxicity against human U87MG cells assessed as inhibition of cell proliferation at 10 uM by MTT assay relative to control. Format: functional, U-87MG ATCC. In general terms: Formazan colour is commonly taken as a measure of viable cells.
Assay [2] deals with PC-3. The assay is described as follows: Cytotoxicity against human PC3 cells assessed as inhibition of cell proliferation at 10 uM by MTT assay relative to control. Format: functional.
The subject of assay [3] is HepG2. The assay is described as follows: Cytotoxicity against human HepG2 cells assessed as inhibition of cell proliferation at 10 uM by MTT assay relative to control. Format: functional.
Assay [4] has as its system HCT-116. The assay is described as follows: Cytotoxicity against human HCT116 cells assessed as inhibition of cell proliferation at 10 uM by MTT assay relative to control. The class given is functional.
Assay [5] deals with SK-OV-3. The assay is described as follows: Cytotoxicity against human SKOV3 cells assessed as inhibition of cell proliferation at 10 uM by MTT assay relative to control. The class given is functional.
The test system of assay [6] is HepG2. The assay is described as follows: Cytotoxicity against human HepG2 cells assessed as inhibition of cell proliferation by MTT assay. The class given is functional, cell-based.
The test system of assay [7] is SK-OV-3. The assay is described as follows: Cytotoxicity against human SKOV3 cells assessed as inhibition of cell proliferation by MTT assay. The class given is functional, cell-based.
For assay [8], the system named is PC-3. As to the kind of experiment: Cytotoxicity against human PC3 cells assessed as inhibition of cell proliferation by MTT assay. Format: functional, cell-based.
For assay [9], the system named is HCT-116. The assay is described as follows: Cytotoxicity against human HCT116 cells assessed as inhibition of cell proliferation by MTT assay. The class given is functional, cell-based.
Assay [10] concerns the target T1, DNA topoisomerase 1 (Homo sapiens) (UniProt P11387).
T1 sequence (whole entry): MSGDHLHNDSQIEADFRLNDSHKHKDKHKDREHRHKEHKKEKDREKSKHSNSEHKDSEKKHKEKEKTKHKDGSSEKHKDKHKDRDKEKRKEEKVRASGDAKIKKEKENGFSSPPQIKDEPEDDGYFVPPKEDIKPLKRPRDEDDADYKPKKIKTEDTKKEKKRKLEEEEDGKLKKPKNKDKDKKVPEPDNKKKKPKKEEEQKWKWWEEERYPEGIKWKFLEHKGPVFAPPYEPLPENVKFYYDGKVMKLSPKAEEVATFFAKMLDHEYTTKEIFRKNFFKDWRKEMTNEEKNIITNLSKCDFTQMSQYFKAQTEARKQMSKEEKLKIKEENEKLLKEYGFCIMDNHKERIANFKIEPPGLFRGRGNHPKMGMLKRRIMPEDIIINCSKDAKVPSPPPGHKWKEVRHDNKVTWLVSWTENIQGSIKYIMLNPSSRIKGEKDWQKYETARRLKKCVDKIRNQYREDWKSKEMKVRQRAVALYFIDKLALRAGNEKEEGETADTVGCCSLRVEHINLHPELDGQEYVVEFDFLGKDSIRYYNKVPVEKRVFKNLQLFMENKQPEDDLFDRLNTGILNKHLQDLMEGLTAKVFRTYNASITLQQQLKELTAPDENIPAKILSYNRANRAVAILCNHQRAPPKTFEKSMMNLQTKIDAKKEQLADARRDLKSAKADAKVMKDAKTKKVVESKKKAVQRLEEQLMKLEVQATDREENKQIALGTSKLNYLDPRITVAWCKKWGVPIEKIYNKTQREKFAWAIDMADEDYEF
The assay is described as follows: Inhibition of recombinant human DNA topoisomerase-1 assessed as relaxation of supercoiled pBR322 DNA at 50 uM after 30 mins by agarose gel electrophoresis.

The test system of assay [11] is U-87 MG. As to the kind of experiment: Cytotoxicity against human U87MG cells assessed as inhibition of cell proliferation by MTT assay. Format: functional, cell-based, U-87MG ATCC.

pIC50: −log10 of the molar value. Calls of active or inactive are those of the source. The calls are words filed in the database; no cut-off is given here.

What is called inhibition is the drop in the measured response relative to a control, in per cent. With `CCOC(=O)C1C2=C(CCCC2=O)n2c(=O)c3ccccc3c(=O)n21` (stereo not given), the inhibition at 10 µM in assay [1] is 1.5%; in assay [2], 11.1%; in [3] it was 12%; in [4] it was 3.5%; in assay [5], -4.89%.
For the compound `COc1ccc2nc3c(nc2c1)C(=O)c1ccccc1-3`, the inhibition at 10 µM is -14.4% in assay [1]; -4.44% in assay [2]; 14.7% in [3]; 8.68% in assay [4]; 8.07% in [5].
The corresponding values for `O=C1c2ccccc2-c2nc3ccc(C(F)(F)F)cc3nc21` are -15.6%, 15.9%, 43.8%, 17.2% and 14.2%.
The corresponding values for `O=C(NCCO)C1c2c(O)cccc2-n2c(=O)c3ccccc3c(=O)n21` (stereo not given) are -0.6%, 5%, -0.87%, -0.6% and -7.14%.
Take `O=C1c2ccccc2-c2nc3cc(F)ccc3nc21`: the inhibition at 10 µM in assay [1] is -13.2%; in assay [2], 2.65%; in [3], 50.5%; in [4], 22.7%; in [5], 9.6%.
For `O=C1c2ccccc2-c2nc3ncccc3nc21`, in that order: -23.3%, 36.2%, 15.2%, 1.49% and 2.89%.
For the compound `CN(C)CCCNC(=O)C1c2c(O)cccc2-n2c(=O)c3ccccc3c(=O)n21` (stereo not given), the inhibition at 10 µM in assay [1] is -4.7%; in assay [2], 11.1%; in assay [3], -8.92%; in [4], -4.5%; in [5], -4.01%.
As usually defined, the pIC50 is −log10 of the IC50, conventionally taken in molar units. On to `CN(C)CCn1c2c(c3c4ccccc4c(O)cc31)C(=O)c1ccccc1C2=O`, for which the inhibition at 10 µM in assay [1] came out at 78.8%; in [2], 66.5%; in [3], 88.2%; in assay [4], 92%; in assay [5] it was 82.4%. For the same compound, the negative-log IC50 (pIC50) was 6.07 in assay [6]; 6.00 in assay [7]; 6.41 in assay [8]; 6.15 in assay [9]; 6.77 in [11]. Further, the inhibition entry in assay [10] is “Active”.
For `O=C(NCCO)C1c2c(ccc(Br)c2O)-n2c(=O)c3ccccc3c(=O)n21` (stereo not given), the inhibition at 10 µM in [1] is 0.4%; in [2], 6.5%; in assay [3], 15.1%; in [4], 3.7%; in assay [5], -4.34%.
For `O=C1c2ccccc2-c2nc3cc(C(F)(F)F)ccc3nc21`, in that order: -7.67%, -1.15%, 42.9%, 12.2% and -0.82%.
For the compound `CCOC(=O)C1c2c(O)cccc2-n2c(=O)c3ccccc3c(=O)n21` (stereo not given), the inhibition at 10 µM in assay [1] is 1.9%; in [2], 4.9%; in assay [3], 11.2%; in assay [4] it was 0.4%; in assay [5], -3.97%.
Regarding `CN(C)CCCn1c2c(c3c4ccccc4c(O)cc31)C(=O)c1ccccc1C2=O`, the inhibition at 10 µM in [1] was 86%; in assay [2], 59.6%; in assay [3] it was 88%; in assay [4] it was 91.2%; in assay [5], 77.4%. The pIC50 in assay [6] was 5.70; in assay [7], 6.11; in [8] it was 6.21; in assay [9], 6.00; in assay [11] it was 6.49. In [10], the inhibition entry is “Active”.
For `Cc1ccc2nc3c(nc2c1)C(=O)c1ccccc1-3`, the inhibition at 10 µM was -13.9% in [1]; -8.92% in assay [2]; 6.44% in [3]; 6.32% in assay [4]; 11.2% in assay [5].
For `O=C(NCCCO)C1c2c(O)cccc2-n2c(=O)c3ccccc3c(=O)n21` (stereo not given), in that order: 2.4%, 7.6%, -3.15%, -3.8% and -5.15%.
For `O=C1c2ccccc2-c2nc3ccccc3nc21`, in that order: -14.5%, -8.39%, 53.2%, -1.83% and 10.1%.
The corresponding values for `CCOC(=O)C1c2c(ccc(Br)c2O)-n2c(=O)c3ccccc3c(=O)n21` (stereo not given) are 4.1%, 0.8%, 2.54%, 3.3% and -3.43%.
As to `CN(C)CCNC(=O)C1c2c(O)cccc2-n2c(=O)c3ccccc3c(=O)n21` (stereo not given), the inhibition at 10 µM in [1] was 1.1%; in [2] it was 4%; in assay [3], -2.82%; in assay [4] it was -4.2%; in assay [5] it was -1.46%.
For `COc1ccc2[nH]c3c(c2c1)C(=O)c1ccccc1C3=O`, in that order: 49%, 8.56%, 26.6%, 76.2% and 57.6%.
The corresponding values for `COc1ccc2nc3c(nc2c1)-c1ccccc1C3=O` are -7.74%, -1.15%, 6.56%, 16.9% and -7.19%.
Take `CN(C)CCCNC(=O)C1c2c(ccc(Br)c2O)-n2c(=O)c3ccccc3c(=O)n21` (stereo not given): the inhibition at 10 µM in [1] is -2.5%; in assay [2], 6.4%; in assay [3] it was -7.99%; in [4], -5.7%; in assay [5], -4.1%.
For the compound `O=C1c2ccccc2-c2nc3cc4ccccc4cc3nc21`, the inhibition at 10 µM in assay [1] is -11.5%; in assay [2] it was 11.8%; in assay [3] it was 2.82%; in assay [4], 7.32%; in assay [5], -8.16%.
Turning to `O=C1c2ccccc2-c2nc3cccnc3nc21`, the inhibition at 10 µM in assay [1] was determined as 20.8%; in assay [2] it was 52.7%; in assay [3], 55.4%; in assay [4], 71.9%; in [5] it was 13.2%. Besides, the pIC50 in [6] is 4.47; in assay [8], 5.36; in assay [9], 4.35.
In the case of `O=C(NCCCO)C1c2c(ccc(Br)c2O)-n2c(=O)c3ccccc3c(=O)n21` (stereo not given), the inhibition at 10 µM in [1] is -4.7%; in assay [2], 5.3%; in [3] it was -8.92%; in assay [4], 5.4%; in [5] it was -4.25%.
The corresponding values for `CN(C)CCNC(=O)C1c2c(ccc(Br)c2O)-n2c(=O)c3ccccc3c(=O)n21` (stereo not given) are 0.1%, 14.3%, 3.89%, -5.8% and -6.16%.
